Key:
HUVEC tube formation [1] = assay: Endothelial tube assay (number of tubes, three-dimensional collagen gels); assay type: cell-based, human
Experimental: In this model, endothelial cells are suspended in a three-dimensional collagen lattice of type I collagen and undergo rapid morphogenesis. Within 4 hr numerous vacuoles are observed in the majority of endothelial cells; at 24 hr the formation of tube-like structures can be observed and at 48 hr an interconnected network of tube-like structures is observed.
Collagen gels were formed by mixing together ice-cold gelatin solution (10× M199, H2O, 0.53M NaHCO3, 200 mM L-glutamine, type I collagen, 0.1M NaOH, 100:27.2:50:10:750:62.5 by volume) and cells in 1× basal medium at a concentration of 3×10^6 cells/ml at a ratio of 4 volumes gelatin solution: 1 volume of cells. After gelation at 37 for 30 min, the gels were overlaid with IX basal medium consisting of M199 supplemented with 1%FBS, 1× ITS, 2 mM L-glutamine, 50 μg/ml ascorbic acid, 26.5 mM NaHCO3, 100 U/ml penicillin and 100 U/mil streptomycin supplemented with 40 ng/ml BFGF, 40 ng/ml VEGF and 80 nM phorbol myristate acetate (PMA). All drugs were added to the IX basal medium immediately after gelation. To quantitate tube formation, the number of tubes per high power (20× field) was determined 48 hr after addition of the basal medium Five independent fields separated by 100 μm optical sections were assessed for each well. Cytotoxicity was assessed using an XTT kit from Boehringer Mannheim (Indianapolis, Ind.).

[2] = tested on: VEGF-stimulated angiogenesis in rat cornea; assay: Corneal angiogenesis assay (Hydron pellet with VEGF); assay type: in vivo, Sprague-Dawley rats
Experimental: A 1.5 mm incision was made approximately 1 mm from the center of the cornea of isoflurane-ketamine (60-80 mg/kg) xylazine (10-15 mg/kg) anesthetized Sprague-Dawley rats. Using a curved spatula, the incision was bluntly dissected through the stroma towards the outer canthus of the eye. A Hydron pellet […] containing VEGF (200 ng), sucralfate (100 μg) with or without (control) 15d-PGJ2 (10 μg/pellet) was inserted into the base of the pocket. After surgery, the eyes were coated with gentamicin ointment. Animals are observed at 24-48 hr for the occurrence of nonspecific inflammation and then daily thereafter. At day 6, the animals were euthanized and injected with FITC-dextran to allow for visualization of the vasculature. Corneal whole mounts were made of the enucleated eyes and analyzed for neovascular area using the computer assisted image analysis.

HUVEC proliferation = assay: Proliferation assay (BrdU incorporation); assay type: cell-based, human; details: type I collagen-coated surface, VEGF, bFGF and PMA, read-out: inhibition of endothelial cell (HUVEC) proliferation, IC50
Experimental: Cells were cultured in above medium in the presence of drugs or vehicle for 4 hr. 5 μl (100 μM) of 5′-bromo-2′-deoxyuridine (BrdU) was added in a final volume of 100 μl/well and cells were incubated for another 20 hr. BrdU incorporation was evaluated by an ELISA kit from Boehringer Mannheim (Indianapolis, Ind.).

HUVEC tube formation [3] = assay: Endothelial tube assay of Example 7 (average tube length, 3-D type I collagen gels); assay type: cell-based, human; details: 10 μM; 24 h; 3-D collagen gels
Experimental: Collagen gels were formed by mixing together ice-cold gelation solution (IOX M199, H2O, 0.53M NaHCO3, 200 mM L-glutamine, type I collagen, 0.1M NaOH, 100:27.2:50:10:750:62.5 by volume) and cells in 1× basal medium (see below) at a concentration of 3×10^6 cells/ml at a ratio of 4 volumes gelation solution: 1 volume of cells (18). After gelation at 37° C. for 30 min, the gels were overlaid with 1× basal medium consisting of M199 supplemented with […], 1× ITS, 2 mM L-glutamine, […] ascorbic acid, 26.5 mM NaHCO3, 100 U/ml penicillin and 100 U/ml streptomycin supplemented with 40 ng/ml bFGF, 40 ng/ml VEGF, 80 nM PMA or the combination of PMA (80 nM), bFGF and VEGF (40 ng/ml each). All drugs were added to the 1× basal medium immediately after gelation. To quantify tube formation, the average tube length was determined by measuring total tube length (long axis) in three consecutive layers of a low power (10×) field using Openlab software (Improvision Inc, England). Each layer was separated by 100 μm.

MMP-2 mRNA = assay: Real time RT-PCR (Taqman) assay in HUVEC, Example 7; assay type: cell-based, human; details: 10 μM; 24 h; PMA or PMA with bFGF and VEGF
Experimental: (§1) Total RNA was extracted from HUVEC cultured in 3-D type I collagen gels for various times in 1× basal medium supplemented with 40 ng/ml bFGF, 40 ng/ml VEGF, […] PMA or the combination of PMA (80 nM), bFGF and VEGF (40 ng/mil each). […] For all mRNAs evaluated a sample of total RNA (100 ng) was added to a 50 μl RT-PCR reaction mixture according to the manufacturer's protocol (Roche Molecular Systems, Inc., Branchburg, N.J.). The thermal cycling conditions included 1 cycle at 48° C. for 30 min, 1 cycle at 95° C. for 10 min, 40 cycles at 95° C. for 15 s, at 60° C. for 1 min, and finally hold at 25° C. for 2 min. Standard curves for expression of each gene were generated by serial dilution of the total RNA isolated from U937 cells. […] Therefore, the relative mRNA expression of each gene was normalized to the level of GAPDH in the same RNA preparation.

MMP-3 mRNA = assay: as above; assay type: cell-based, human
Experimental: as §1

MMP-9 mRNA = assay: as above; assay type: cell-based, human; details: 10 μM; 24 h; PMA or PMA with bFGF and VEGF
Experimental: as §1

TIMP-1 mRNA = assay: as above; assay type: cell-based, human; details: 10 μM; bFGF, VEGF and PMA; at 4 h or 24 h
Experimental: as §1

TIMP-2 mRNA = assay: as above; assay type: cell-based, human; details: 10 μM; bFGF, VEGF and PMA; at 4 h
Experimental: as §1

CCCCC/C=C/C=C1/C(=O)C=CC1C/C=C\CCCC(=O)O (stereo not drawn) [15d-PGJ2, 15-deoxy-delta^12,14-PGJ2]
effect on tube formation (FIG. 1B) (HUVEC tube formation [1]; 10 μM, 48 hr): inhibitory effects | IC50 (HUVEC tube formation [1]; HUVEC in collagen gels with bFGF, VEGF and PMA, tubes counted at 48 hr, read-out: inhibition of tube formation, IC50): 2800 nM | area of new vessels (FIG. 4C) ([2]; 200 ng/pellet VEGF and 10 μg/ml 15d-PGJ2, day 6 postimplantation, p<0.05, Mann-Whitney): significantly different from VEGF alone group | vessel length compared to VEGF only (positive) controls ([2]; Hydron pellet, 200 ng VEGF with 10 μg 15d-PGJ2, rat cornea): significant reduction | IC50 (HUVEC proliferation): 2400 nM | PMA or PMA in combination with bFGF and VEGF induced HUVEC tube formation (HUVEC tube formation [3]): blocked | MMP-2 mRNA levels (MMP-2 mRNA): significant suppression | MMP-3 mRNA levels (MMP-3 mRNA; HUVEC cultured with combination of bFGF, VEGF and PMA at 24 h): increased | MMP-3 mRNA expression (MMP-3 mRNA; PMA-treated group): no effect | MMP-9 mRNA levels (MMP-9 mRNA): significant suppression | expression of TIMP-1 (TIMP-1 mRNA): did not increase | TIMP-2 mRNA levels compared to the vehicle treated group (TIMP-2 mRNA): reduced
